According to patent US6737383B1, “Herbicidal oxadiazolidines” (priority 1999, dated 2004):

Key:
[1] = tested on: wheat; assay: Test B pre/postemergence wheat; assay type: in vivo, Triticum aestivum
Outline: (§1)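 Response is a visual 0-to-10 score relative to untreated plants, where 0 means no effect and 10 means complete control, taken twelve to sixteen days after application. Treatments went onto soil at planting and onto foliage of 1- to 4-leaf plants, using a surfactant-containing non-phytotoxic solvent.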

[2] = tested on: bedstraw; assay: Test B pre/postemergence bedstraw; assay type: in vivo, Galium aparine
Outline: as §1

[3] = tested on: cocklebur; assay: Test B pre/postemergence cocklebur; assay type: in vivo, Xanthium strumarium
Outline: as §1

[4] = tested on: soybean; assay: Test B pre/postemergence soybean; assay type: in vivo, Glycine max
Outline: as §1

[5] = tested on: blackgrass; assay: Test B pre/postemergence blackgrass; assay type: in vivo, Alopecurus myosuroides
Outline: as §1

[6] = tested on: purple nutsedge; assay: Test B pre/postemergence purple nutsedge; assay type: in vivo, Cyperus rotundus
Outline: as §1

[7] = tested on: morningglory; assay: Test B pre/postemergence morningglory; assay type: in vivo, Ipomoea hederacea
Outline: as §1

[8] = tested on: velvetleaf; assay: Test B pre/postemergence velvetleaf; assay type: in vivo, Abutilon theophrasti
Outline: as §1

[9] = tested on: sugar beet; assay: Test B pre/postemergence sugar beet; assay type: in vivo, Beta vulgaris
Outline: as §1

[10] = tested on: crabgrass; assay: Test B pre/postemergence crabgrass; assay type: in vivo, Digitaria sanguinalis
Outline: as §1

[11] = tested on: surinam grass; assay: Test B pre/postemergence surinam grass; assay type: in vivo, Brachiaria decumbens
Outline: as §1

[12] = tested on: rape; assay: Test B pre/postemergence rape; assay type: in vivo, Brassica napus
Outline: as §1

[13] = tested on: giant foxtail; assay: Test B pre/postemergence giant foxtail; assay type: in vivo, Setaria faberii
Outline: as §1

[14] = tested on: wild oat; assay: Test B pre/postemergence wild oat; assay type: in vivo, Avena fatua
Outline: as §1

[15] = tested on: pigweed; assay: Test B pre/postemergence pigweed; assay type: in vivo, Amaranthus retroflexus
Outline: as §1

[16] = tested on: corn; assay: Test B pre/postemergence corn; assay type: in vivo, Zea mays
Outline: as §1

[17] = Preemergence, Rate 62 g/ha, scale of 0 to 10 where 0 is no effect and 10 is complete control
[18] = Preemergence, Rate 250 g/ha, scale of 0 to 10 where 0 is no effect and 10 is complete control
[19] = Preemergence, Rate 500 g/ha, scale of 0 to 10 where 0 is no effect and 10 is complete control
[20] = Rate 125 g/ha, Preemergence, scale of 0 to 10 where 0 is no effect and 10 is complete control
[21] = Rate 500 g/ha, Postemergence, scale 0 to 10, 0 no effect, 10 complete control
[22] = Rate 62 g/ha, Postemergence, scale of 0 to 10 where 0 is no effect and 10 is complete control
[23] = Rate 125 g/ha, Postemergence, scale 0 to 10
[24] = Preemergence, Rate 125 g/ha, scale of 0 to 10 where 0 is no effect and 10 is complete control
[25] = Preemergence, Rate 250 g/ha, scale 0 to 10 (0 no effect, 10 complete control)

## CC(C)=CCCC(C)=CCn1c(=O)on(C(=O)N(c2ccc(F)cc2)C(C)C)c1=O [Compound 262]
[1]; [17]
  Wheat plant response rating: 0
[1]; [18]
  Wheat plant response rating: 0
[1]; [19]
  Plant response rating, Wheat: 0
[1]; [20]
  Wheat plant response rating: 0
[1]; [21]
  Wheat plant response rating: 0
[2]; [17]
  Bedstraw plant response rating: 0
[2]; [18]
  Bedstraw plant response rating: 0
[2]; [19]
  Plant response rating, Bedstraw: 0
[2]; [22]
  Bedstraw plant response rating: 0
[2]; [23]
  Bedstraw plant response rating: 0
[2]; [20]
  Bedstraw plant response rating: 0
[3]; [17]
  Cocklebur plant response rating: 0
[3]; [18]
  Cocklebur plant response rating: 0
[3]; [19]
  Plant response rating, Cocklebur: 0
[3]; [22]
  Cocklebur plant response rating: 0
[3]; [23]
  Cocklebur plant response rating: 0
[3]; [20]
  Cocklebur plant response rating: 0
[3]; Rate 250 g/ha, Postemergence
  Plant response rating (0 to 10; 0 is no effect, 10 is complete control), Cocklebur: 0
[3]; [21]
  Cocklebur plant response rating: 0
[4]; [17]
  Soybean plant response rating: 0
[4]; [18]
  Soybean plant response rating: 0
[4]; [19]
  Plant response rating, Soybean: 0
[4]; [20]
  Soybean plant response rating: 0
[4]; [21]
  Soybean plant response rating: 4
[5]; [17]
  Blackgrass plant response rating: 0
[5]; [18]
  Blackgrass plant response rating: 2
[5]; [19]
  Plant response rating, Blackgrass: 4
[5]; [22]
  Blackgrass plant response rating: 0
[5]; [23]
  Blackgrass plant response rating: 0
[5]; [20]
  Blackgrass plant response rating: 0
[5]; Rate 250 g/ha, Postemergence
  Plant response rating (0 to 10; 0 is no effect, 10 is complete control), Blackgrass: 0
[5]; [21]
  Blackgrass plant response rating: 0
[6]; [17]
  Nutsedge plant response rating: 0
[6]; [18]
  Nutsedge plant response rating: 0
[6]; [19]
  Plant response rating, Nutsedge: 0
[6]; [20]
  Nutsedge plant response rating: 0
[6]; Rate 250 g/ha, Postemergence
  Plant response rating (0 to 10; 0 is no effect, 10 is complete control), Nutsedge: 0
[6]; [21]
  Nutsedge plant response rating: 0
[7]; [17]
  Morningglory plant response rating: 0
[7]; [18]
  Morningglory plant response rating: 0
[7]; [19]
  Plant response rating, Morningglory: 0
[7]; [20]
  Morningglory plant response rating: 0
[7]; Rate 250 g/ha, Postemergence
  Plant response rating (0 to 10; 0 is no effect, 10 is complete control), Morningglory: 5
[7]; [21]
  Morningglory plant response rating: 7
[8]; [17]
  Velvetleaf plant response rating: 0
[8]; [18]
  Velvetleaf plant response rating: 0
[8]; [19]
  Plant response rating, Velvetleaf: 0
[8]; [20]
  Velvetleaf plant response rating: 0
[8]; [21]
  Velvetleaf plant response rating: 2
[9]; [17]
  Sugarbeets plant response rating: 0
[9]; [18]
  Sugarbeets plant response rating: 0
[9]; [19]
  Plant response rating, Sugarbeets: 0
[9]; [20]
  Sugarbeets plant response rating: 0
[9]; [21]
  Sugarbeets plant response rating: 0
[10]; [17]
  Crabgrass plant response rating: 0
[10]; [18]
  Crabgrass plant response rating: 2
[10]; [19]
  Plant response rating, Crabgrass: 3
[10]; [20]
  Crabgrass plant response rating: 2
[10]; Rate 250 g/ha, Postemergence
  Plant response rating (0 to 10; 0 is no effect, 10 is complete control), Crabgrass: 0
[10]; [21]
  Crabgrass plant response rating: 0
[11]; [17]
  B. signalgrass plant response rating: 0
[11]; [18]
  B. signalgrass plant response rating: 0
[11]; [19]
  Plant response rating, B. signalgrass: 0
[11]; [22]
  B. signalgrass plant response rating: 0
[11]; Rate 125 g/ha, Postemergence, scale 0 (no effect) to 10 (complete control)
  B. signalgrass plant response rating: 0
[11]; [20]
  B. signalgrass plant response rating: 0
[11]; Rate 250 g/ha, Postemergence
  Plant response rating (0 to 10; 0 is no effect, 10 is complete control), B. signalgrass: 0
[11]; [21]
  B. signalgrass plant response rating: 0
[12]; [17]
  Rape plant response rating: 0
[12]; [18]
  Rape plant response rating: 0
[12]; [19]
  Plant response rating, Rape: 0
[12]; [20]
  Rape plant response rating: 0
[12]; Rate 250 g/ha, Postemergence
  Plant response rating (0 to 10; 0 is no effect, 10 is complete control), Rape: 0
[12]; [21]
  Rape plant response rating: 0
[13]; [17]
  Giant foxtail plant response rating: 0
[13]; [19]
  Plant response rating, Giant foxtail: 7
[13]; [20]
  Giant foxtail plant response rating: 3
[13]; Rate 250 g/ha, Postemergence
  Plant response rating (0 to 10; 0 is no effect, 10 is complete control), Giant foxtail: 0
[13]; [21]
  Giant foxtail plant response rating: 0
[14]; [17]
  Wild oats plant response rating: 0
[14]; [18]
  Wild oats plant response rating: 0
[14]; [19]
  Plant response rating, Wild oats: 0
[14]; [20]
  Wild oats plant response rating: 0
[14]; [21]
  Wild oats plant response rating: 0
[15]; [17]
  Redroot pigweed plant response rating: 0
[15]; [18]
  Redroot pigweed plant response rating: 0
[15]; [19]
  Plant response rating, Redroot pigweed: 0
[15]; [20]
  Redroot pigweed plant response rating: 0
[15]; Rate 250 g/ha, Postemergence
  Plant response rating (0 to 10; 0 is no effect, 10 is complete control), Redroot pigweed: 3
[15]; [21]
  Redroot pigweed plant response rating: 4
[16]; [17]
  Corn plant response rating: 0
[16]; [18]
  Corn plant response rating: 0
[16]; [19]
  Plant response rating, Corn: 0
[16]; [22]
  Corn plant response rating: 0
[16]; [23]
  Corn plant response rating: 0
[16]; [20]
  Corn plant response rating: 0
[16]; Rate 250 g/ha, Postemergence
  Plant response rating (0 to 10; 0 is no effect, 10 is complete control), Corn: 0
[16]; [21]
  Corn plant response rating: 0

## CC(C)N(C(=O)n1oc(=O)n(CC(Cl)Cl)c1=O)c1ccc(F)cc1F [Compound 673]
[1]; [17]
  Wheat plant response rating: 0
[1]; [24]
  Plant response rating, Wheat: 0
[1]; [25]
  Plant response rating, Wheat: 0
[2]; [17]
  Bedstraw plant response rating: 3
[2]; [25]
  Plant response rating, Bedstraw: 4
[2]; [19]
  Plant response rating, Bedstraw: 6
[3]; [17]
  Cocklebur plant response rating: 0
[3]; [24]
  Plant response rating, Cocklebur: 0
[3]; [25]
  Plant response rating, Cocklebur: 0
[3]; [19]
  Plant response rating, Cocklebur: 2
[4]; [17]
  Soybean plant response rating: 0
[4]; [24]
  Plant response rating, Soybean: 0
[4]; [25]
  Plant response rating, Soybean: 0
[4]; [19]
  Plant response rating, Soybean: 0
[5]; [17]
  Blackgrass plant response rating: 3
[5]; [24]
  Plant response rating, Blackgrass: 8
[5]; [25]
  Plant response rating, Blackgrass: 9
[5]; [19]
  Plant response rating, Blackgrass: 9
[6]; [17]
  Nutsedge plant response rating: 0
[6]; [24]
  Plant response rating, Nutsedge: 0
[6]; [25]
  Plant response rating, Nutsedge: 2
[6]; [19]
  Plant response rating, Nutsedge: 6
[7]; [17]
  Morningglory plant response rating: 0
[7]; [24]
  Plant response rating, Morningglory: 0
[7]; [25]
  Plant response rating, Morningglory: 0
[7]; [19]
  Plant response rating, Morningglory: 2
[8]; [17]
  Velvetleaf plant response rating: 0
[8]; [24]
  Plant response rating, Velvetleaf: 3
[8]; [25]
  Plant response rating, Velvetleaf: 3
[8]; [19]
  Plant response rating, Velvetleaf: 8
[9]; [17]
  Sugarbeets plant response rating: 0
[9]; [24]
  Plant response rating, Sugarbeets: 0
[9]; [25]
  Plant response rating, Sugarbeets: 3
[9]; [19]
  Plant response rating, Sugarbeets: 3
[10]; [17]
  Crabgrass plant response rating: 4
[10]; [24]
  Plant response rating, Crabgrass: 8
[10]; [25]
  Plant response rating, Crabgrass: 10
[10]; [19]
  Plant response rating, Crabgrass: 10
[11]; [17]
  B. signalgrass plant response rating: 4
[11]; [24]
  Plant response rating, B. signalgrass: 6
[11]; [25]
  Plant response rating, B. signalgrass: 7
[11]; [19]
  Plant response rating, B. signalgrass: 8
[12]; [17]
  Rape plant response rating: 1
[12]; [24]
  Plant response rating, Rape: 2
[12]; [25]
  Plant response rating, Rape: 2
[12]; [19]
  Plant response rating, Rape: 2
[13]; [17]
  Giant foxtail plant response rating: 9
[13]; [24]
  Plant response rating, Giant foxtail: 10
[13]; [25]
  Plant response rating, Giant foxtail: 10
[13]; [19]
  Plant response rating, Giant foxtail: 10
[14]; [17]
  Wild oats plant response rating: 5
[14]; [25]
  Plant response rating, Wild oats: 9
[14]; [19]
  Plant response rating, Wild oats: 8
[15]; [17]
  Redroot pigweed plant response rating: 6
[15]; [24]
  Plant response rating, Redroot pigweed: 7
[15]; [25]
  Plant response rating, Redroot pigweed: 10
[15]; [19]
  Plant response rating, Redroot pigweed: 10
[16]; [17]
  Corn plant response rating: 0
[16]; [24]
  Plant response rating, Corn: 2
[16]; [25]
  Plant response rating, Corn: 4
[16]; [19]
  Plant response rating, Corn: 6
